# Source: US20250188136A1, “AV3 MUTANT POLYPEPTIDES FOR PEST CONTROL” (Vestaron Corporation, priority 2021, published 2025)
# Entries after “also recorded” stand apart in the source; their conditions may differ. Ends that are not written are not given here.
# Assays:
# [1] = system: houseflies; test: Housefly injection assay (knock-down); format: in vivo, Musca domestica
# Procedure: An exemplary housefly injection bioassay is as follows: conditioned media is serially diluted to generate full dose-response curves from the housefly injection bioassay. Before injection, adult houseflies (Musca domestica) are immobilized with CO2, and 12-18 mg houseflies are selected for injection. A microapplicator, loaded with a 1 cc syringe and 30-gauge needle, is used to inject 0.5 μL per fly, doses of serially diluted conditioned media samples into houseflies through the body wall of the dorsal thorax. The injected houseflies are placed into closed containers with moist filter paper and breathing holes on the lids, and they are examined by knock-down ratio or by mortality scoring at 24 hours post-injection. Normalized yields are calculated. Peptide yield means the peptide concentration in the conditioned media in units of mg/L. However, peptide yields are not always sufficient to accurately compare the strain production rate. […] A culture with a high cell density may produce a higher concentration of the peptide in the media, even though the peptide production rate of the strain is lower than another strain which has a higher production rate. Accordingly, the term “normalized yield” is created by dividing the peptide yield with the cell density in the corresponding culture and this allows a better comparison of the peptide production rate between strains. The cell density is represented by the light absorbance at 600 nm with a unit of “A” (Absorbance unit).
# A housefly injection assay was performed to determine the activity of the new mutants. Adult houseflies were immobilized with CO2 for 10 minutes, and then transferred to a CO2 pan to keep immobilized. Flies with weight between 12-20 mg were picked for injection. The new mutants and Av3b control were diluted in water to proper doses for injection. Next, a 0.5 μL peptide solution was injected into each housefly at the dorsal thorax using a hand-microapplicator with 1 cc all-glass syringe with 30 gauge straight needle. The injected flies were then transferred to a 2 oz. transparent portion container with a wet #4 filter paper. Fly knock-down was assessed at 5-hours post-injection. The activity of a given new mutant was then normalized to the activity of the Av3b production strain (control), using the fly knock-down score at 5 hours.
# [2] = DASbox small-scale fermentation, degradation by HPLC and LC/MS; format: physicochemical; conditions: DASbox fed batch fermentation runs
# Procedure: DASbox® is a parallel bioreactor system (Eppendorf, 175 Freshwater Blvd, Enfield, CT 06082, USA). The DASbox system used here contains 8 fermentation vessels with 250 mL volume capacity, allowing 8 small scale fermentation runs simultaneously. The DASbox fermentation runs were performed according to the manufacturer's instructions, and using the fermentation conditions described herein.
# The screening of the Av3b mutants was conducted using a fed batch process in aerobic bioreactor. Reactors were initially filled to ˜45% capacity with a rich culture media containing 5-20 g/L of a carbon source such as glucose, sorbitol, or lactose, 5-20 g/L phosphoric acid, 0.1-1.5 g/L Calcium sulfate, 5-15 g/L Potassium sulfate, 0.5-10 g/L Magnesium sulfate heptahydrate, 1-5 g/L potassium hydroxide, and 10-60 g/L of corn steep liquor. The temperature of the reactor was maintained between 25-35° C. for the duration of the fermentation. The pH was held constant between 4-5.5 with the addition of 15% ammonium hydroxide. Dissolved oxygen was held constant by sparging air between 0.5-1.5 volume/volume/min and by increasing agitation to maintain a set point of 10-30%.
# Inoculation of the reactor was from an overnight seed culture containing 5-40 g/L of a carbon source such as glucose, sorbitol, or lactose, and 5-40 g/L of corn steep liquor. Inoculation percentage ranged from 5-20% of initial fill volume. Once inoculated, the reactor was fed with a 70% solution of the selected carbon source until the reactor was filled and/or desired supernatant peptide concentration was achieved, approximately 96-140 hours and 0.8-1.2 g/L, respectively.
# [3] = Circular dichroism assay, melting temperature; format: physicochemical; conditions: 10 mM Na3PO4 solution, pH 5.9; 20° C. to 98° C.
# Procedure: A JASCO J-1500 CD spectrometer (JASCO, 28600 Mary's Court, Easton, MD 21601 USA) was used to measure the CD spectrum and the secondary structure information of the Av3bM24, Av3bM165, Av3bM103, and Av3bM170 peptides (with Av3b as a comparator). The peptides were prepared in 10 mM Na3PO4 solution, pH 5.9, and loaded into the cuvette for CD spectrum measurement. Measurements were processed with a light wavelength scan ranging from 180 nm to 250 nm, with a 1 nm interval; the temperature graduate changed from 20° C. to 98° C., with 2° C. interval.
sequence,measurement,setting,value
KSCCPCYWGGCPWGQNCYPEGCDGPK (ends and bridges not checked; cysteine pairing not given here) [Av3bM24],housefly knock-down / insecticidal activity relative to Av3b,[1]; knock-down at 5 hours post-injection,without a concomitant reduction in housefly knock-down activity; also recorded: insecticidal activity
same,Activity,"[1]; knock-down at 5 hours post-injection normalized to Av3b, Yes = insecticidal activity maintained",Yes
same,degradation detected via HPLC and LC/MS,[2],degradation was detected
same,CD Melting temperature,[3],80 °C
